# Assays:
# cystine transporter = molecular target: T1, cystine transporter (Homo sapiens, UniProt Q9UPY5); assay: Inhibition of selenocystine uptake by cystine transporter inhibitor; assay type: cell-based; conditions: HeLa cells, with cystine transporter inhibitor (sulfasalazine or erastin); FIG. 3
# T1 construct: endogenous in cells; host or cells: HeLa cells
# T1 sequence (Q9UPY5 1-501): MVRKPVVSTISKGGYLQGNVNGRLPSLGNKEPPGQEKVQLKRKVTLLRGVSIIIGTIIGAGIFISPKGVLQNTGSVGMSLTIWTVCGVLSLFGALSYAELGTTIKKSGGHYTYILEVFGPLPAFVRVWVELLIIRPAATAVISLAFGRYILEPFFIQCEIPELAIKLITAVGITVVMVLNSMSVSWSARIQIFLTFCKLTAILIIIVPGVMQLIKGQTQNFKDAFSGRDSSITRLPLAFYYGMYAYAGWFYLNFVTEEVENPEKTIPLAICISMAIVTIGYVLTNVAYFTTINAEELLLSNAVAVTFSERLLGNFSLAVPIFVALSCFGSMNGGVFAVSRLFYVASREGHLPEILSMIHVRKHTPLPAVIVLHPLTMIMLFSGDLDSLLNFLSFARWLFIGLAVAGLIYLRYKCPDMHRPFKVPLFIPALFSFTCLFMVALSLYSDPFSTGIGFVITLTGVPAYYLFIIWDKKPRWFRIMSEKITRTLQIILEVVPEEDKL
# T1 sequence (P08195 1-529 partner): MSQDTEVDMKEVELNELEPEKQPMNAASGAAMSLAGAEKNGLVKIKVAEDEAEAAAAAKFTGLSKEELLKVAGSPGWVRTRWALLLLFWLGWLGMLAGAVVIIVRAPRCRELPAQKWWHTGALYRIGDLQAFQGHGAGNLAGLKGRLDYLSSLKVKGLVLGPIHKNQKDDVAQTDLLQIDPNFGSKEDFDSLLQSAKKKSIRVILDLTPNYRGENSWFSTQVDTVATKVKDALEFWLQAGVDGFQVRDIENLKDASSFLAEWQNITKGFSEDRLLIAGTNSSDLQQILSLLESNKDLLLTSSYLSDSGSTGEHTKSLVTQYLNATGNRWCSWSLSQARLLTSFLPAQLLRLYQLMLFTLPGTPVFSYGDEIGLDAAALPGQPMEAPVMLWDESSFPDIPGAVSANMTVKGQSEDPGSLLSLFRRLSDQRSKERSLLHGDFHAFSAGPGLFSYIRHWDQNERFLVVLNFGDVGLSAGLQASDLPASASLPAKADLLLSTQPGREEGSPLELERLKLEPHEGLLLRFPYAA
# Procedure: DMEM (cystine-free) containing a cystine transporter inhibitor (sulfasalazine or erastin) was added to HeLa cells, and the cells were incubated in the CO2 incubator (37° C.) for 5 minutes. DMEM (cystine-free) containing 200 μM selenocystine was then added, and the cells were incubated in the CO2 incubator (37° C.) for 30 minutes. After removing the supernatant, the cells were washed with PBS three times and lysed with methanol. Then, 100 mM MES at a pH of 6 containing 10 μM FOdA and 200 μM TCEP was added, and the cells were incubated at 37° C. for 30 minutes. The fluorescence intensity of each solution was then measured with a plate reader (Infinite(R) 200 PRO, excitation wavelength: 485 nm, fluorescence wavelength: 535 nm).
# HeLa cells = assay: Ability to take selenocystine into cells (FOdA/TCEP fluorescence measurement); assay type: cell-based, human; conditions: selenocystine at concentrations in cystine-free DMEM, 30 minutes, FIG. 2
# Procedure: DMEM (cystine-free) was added to HeLa cells, and the cells were incubated in a CO2 incubator (37° C.) for 5 minutes. After the removal of the supernatant, DMEM (cystine-free) containing selenocystine at concentrations was added, and the cells were incubated in the CO 2 incubator (37° C.) for 30 minutes. After removing the supernatant, the cells were washed with PBS three times and then lysed with methanol. Then, 100 mM MES at a pH of 6 containing 10 μM FOdA and 200 μM TCEP was added, and the mixture was incubated at 37° C. for 30 minutes. The fluorescence intensity of each solution was then measured with a plate reader (Infinite(R) 200 PRO, excitation wavelength: 485 nm, fluorescence wavelength: 535 nm).
structure (smiles),measurement,setting,value
N[C@@H](C[Se][Se]C[C@H](N)C(=O)O)C(=O)O [selenocystine],route of selenocystine uptake,cystine transporter,taken through cystine transporter
same,fluorescence intensity (selenocystine taken up by the cells),HeLa cells,increased depending on the concentration of selenocystine
